Results published in patent US7718764B2, “Biologically active peptide [sequence] derivatives” (CMS Peptides Patent Holding Company Limited, priority 2004, dated 2010).

Key:
Masugi nephritis rabbits [1] = assay: Masugi nephritis in rabbits: urine protein; format: in vivo; conditions: 0.1 mg/kg/day i.v.
Procedure: (§1) Twenty-two healthy rabbits were randomized into 5 groups: peptide (107.3 μg/kg/day and 58.5 μg/kg/day, 4 rabbits per group), dexamethasone (0.1 mg/kg/day, 4 rabbits), saline treatment (1 ml/day, 7 rabbits), and normal healthy (3 rabbits). Before the establishment of a disease state in the rabbits, measurements of serum BUN, creatinine, and urine protein over 24 hours were taken for each rabbit. If there was no abnormality in these measurements, the Masugi nephritis model was established in experimental rabbits by intravenous injection of sheep anti-rabbit renal cortex antiserum via the auricular vein, 0.5 ml per injection, one injection every 30 minutes, for a total of 4 injections per rabbit. The normal healthy (control) rabbit group was injected with saline in the same manner. Intravenous administration of the test substances via the auricular vein was started on the day after the injection of the antiserum, once per day, 1 ml per injection, for 30 consecutive days.
Urine was collected from each rabbit over a 24 hour period once per week and the protein content determined by the sulfosalicylic acid method.
(§2) Statistical significance was determined by the t-test of the SPSS software.

Masugi nephritis rabbits [2] = assay: Masugi nephritis in rabbits: clearance of sheep anti-rabbit renal cortex IgG antibody (glomerular immunofluorescence); format: in vivo; conditions: 0.1 mg/kg/day i.v. 30 days, saline treatment 8.7 ± 0.9
Procedure: as §1, with “Before” for “Twenty-two healthy rabbits were randomized into 5 groups: peptide (107.3 μg/kg/day and 58.5 μg/kg/day, 4 rabbits per group), dexamethasone (0.1 mg/kg/day, 4 rabbits), saline treatment (1 ml/day, 7 rabbits), and normal healthy (3 rabbits). Before”
For observation of the effects of peptides on the clearance of sheep anti-rabbit renal cortex IgG antibody from Masugi nephritis rabbits, on the day after the last test substance administration, the rabbits were sacrificed by suffocation and the right kidney was extirpated, freeze-edged and then immunofluorescently stained for the presence of sheep IgG. The fluorescence-positive area of each glomerulus was counted. Thirty glomeruli per rabbit were examined and the average positive area per glomerulus was calculated.
as §2

mice T-lymphocyte = assay: Mice T-lymphocyte transformation induced by ConA in vitro (spleen cells, MTT); format: cell-based, BALB/c mice; conditions: for OD: Table 2, ConA 5 μg/ml, 68 hrs
Procedure: The spleens from healthy mice were isolated aseptically and manually dispersed in 10% FBS RPMI-1640 solution using an injection needle. The dispersed cell suspension was further sieved through a 100-gauge 150 μm diameter stainless steel sieve. The spleen cell suspension was adjusted to a density of 4×10^6/ml and was aliquoted onto 96-well cell culture plates at 100 μl/well. Peptides were dissolved in plain RPMI-1640. The design of the groupings was as given below.
Peptide group: 100 μl working peptide solution+75 μl spleen cell suspension+25 μl ConA working solution.
ConA control group: 100 μl RPMI-1640+75 μl spleen cell suspension+25 μl ConA working solution.
Negative control group: 125 μl RPMI-1640+75 μl spleen cell suspension.
The final concentration of ConA in the well was 5 μg/ml. The final concentrations of peptides in the well were 80 μg/ml, 16 μg/ml, 3.2 μg/ml, 0.64 μg/ml, and 0.128 μg/ml. Each peptide group contained three parallel wells, and eight or twelve wells for the control groups. The cells were incubated for 68 hrs at 37° C., 5% CO2. MTT method was used to obtain a reading of OD570 nm of each well referenced at 630 nm on an ELISA reader.

Substance | proteinuria Week 0 (Masugi nephritis rabbits [1]; Week 0, saline treatment 11.72 ± 3.18) | proteinuria Week 1 (Masugi nephritis rabbits [1]; Week 1, saline treatment 122 ± 91) | proteinuria Week 2 (Masugi nephritis rabbits [1]; Week 2, saline treatment 160 ± 138) | proteinuria Week 3 (Masugi nephritis rabbits [1]; Week 3, saline treatment 145 ± 33) | proteinuria Week 4 (Masugi nephritis rabbits [1]; Week 4, saline treatment 157 ± 71) | Positive area count/glomerulus (Masugi nephritis rabbits [2]) | OD (mice T-lymphocyte; peptide 0.64 μg/ml, ConA control 0.467 ± 0.043) | OD (mice T-lymphocyte; peptide 80 μg/ml, MTT OD570 nm ref 630 nm, ConA control 0.467 ± 0.043, negative control 0.134 ± 0.011) | Effect on mice T-lymphocyte transformation induced by ConA in vitro (mice T-lymphocyte; at suitable concentrations, vs ConA positive control P<0.05)
Dexamethasone Sodium Phosphate [reference compound] | 9.48 ± 8.46 mg/dL | 29 ± 12 mg/dL | 13.6 ± 6.3 mg/dL | 13.7 ± 3.1 mg/dL | 25 ± 19 mg/dL | 7.5 ± 1.0 |  |  | 
VANPK [CMS-010.105] |  |  |  |  |  |  | 0.386 ± 0.008 | 0.407 ± 0.019 | suppress
